Calls of active or inactive are those of the source. No cut-off for these calls is given here.

The test system of one data set is Artemia. The data set is described as follows: Toxicity in brine shrimp. Type of data set: organism-based. The conditions noted are these: in vivo.
The nature of data set [1]: Inhibition of PKC.

As to `CC(=O)OC[C@]12[C@H](O)[C@H](OC(=O)c3cccnc3)[C@@H]3[C@@H](OC(C)=O)[C@@]14O[C@@]3(C)COC(=O)c1cccnc1[C@@H](C)[C@H](C)C(=O)O[C@@H]([C@H](OC(C)=O)[C@@H]2OC(C)=O)[C@]4(C)O` [PUTTERINE A], the Activity result in the data set on Artemia is listed as “Toxic”. Besides, the inhibition result in data set [1] is “inactive”.
For `CC(=O)OC[C@]12[C@H](O)[C@H](OC(=O)c3cccnc3)[C@@H]3[C@@H](OC(C)=O)[C@@]14O[C@@]3(C)COC(=O)c1cccnc1[C@@H](C)[C@H](C)C(=O)O[C@@H]([C@H](OC(=O)C(C)C)[C@@H]2OC(C)=O)[C@]4(C)O` [PUTTERINE B], in that order: “Toxic” and “inactive”.

These data come from ChEMBL document CHEMBL1150839, “Dihydroagarofuran sesquiterpene alkaloids from Maytenus putterlickoides” (J Nat Prod, 2001).
